According to the NIST ThermoML archive (doi:10.1021/je030147g):
Values joined by “and” are separate entries in the source; they are usually repeats but may differ in a detail not shown here. Equal entries are not always repeated.

Legend:
[1] = 101.33 kPa, Liquid
[2] = refractive index (Na D-line) (dimensionless); details: 101.33 kPa, Liquid
[3] = xn = mol fraction of the nth substance listed; details: 101.33 kPa, Liquid
[4] = refractive index (Na D-line) (dimensionless); xn = mol fraction of the nth substance listed; details: 101.33 kPa, Liquid

ClC(Cl)=C(Cl)Cl [tetrachloroethene]
Details	mass density, 298.15 K [kg/m3]	mass density, 303.15 K [kg/m3]	mass density, 308.15 K [kg/m3]	refractive index, 298.15 K	refractive index, 303.15 K	refractive index, 308.15 K	speed of sound, 298.15 K [m/s]	viscosity, 298.15 K [mPa·s]	viscosity, 303.15 K [mPa·s]	viscosity, 308.15 K [mPa·s]
[1]	1616	1607.5	1597.5	–	–	–	1033	0.875	0.831	0.791
[2]	–	–	–	1.5036	1.5005	1.4978	–	–	–	–

ClC=C(Cl)Cl [trichloroethene]
Details	mass density, 298.15 K [kg/m3]	mass density, 303.15 K [kg/m3]	mass density, 308.15 K [kg/m3]	refractive index, 298.15 K	refractive index, 303.15 K	refractive index, 308.15 K	speed of sound, 298.15 K [m/s]	viscosity, 298.15 K [mPa·s]	viscosity, 303.15 K [mPa·s]	viscosity, 308.15 K [mPa·s]
[1]	1456.7	1447.1	1439.5	–	–	–	1028	0.595	0.571	0.549
[2]	–	–	–	1.4752	1.4722	1.469	–	–	–	–

C1CCOC1 [tetrahydrofuran]
Details	mass density, 298.15 K [kg/m3]	mass density, 303.15 K [kg/m3]	mass density, 308.15 K [kg/m3]	refractive index, 298.15 K	refractive index, 303.15 K	refractive index, 308.15 K	speed of sound, 298.15 K [m/s]	viscosity, 298.15 K [mPa·s]	viscosity, 303.15 K [mPa·s]	viscosity, 308.15 K [mPa·s]
[1]	882.9	877.5	871.2	–	–	–	1288	0.485	0.46	0.439
[2]	–	–	–	1.4049	1.4026	1.3998	–	–	–	–

CCN(CC)CC [triethylamine]
Details	mass density, 298.15 K [kg/m3]	mass density, 303.15 K [kg/m3]	mass density, 308.15 K [kg/m3]	refractive index, 298.15 K	refractive index, 303.15 K	refractive index, 308.15 K	speed of sound, 298.15 K [m/s]	viscosity, 298.15 K [mPa·s]	viscosity, 303.15 K [mPa·s]	viscosity, 308.15 K [mPa·s]
[1]	723.3	718.6	713.7	–	–	–	1123	0.367	0.349	0.332
[2]	–	–	–	1.3992	1.3958	1.3929	–	–	–	–

CCCCN(CCCC)CCCC [tributylamine]
Details	mass density, 298.15 K	mass density, 303.15 K [kg/m3]	mass density, 308.15 K [kg/m3]	refractive index, 298.15 K	refractive index, 303.15 K	refractive index, 308.15 K	speed of sound, 298.15 K [m/s]	viscosity, 298.15 K [mPa·s]	viscosity, 303.15 K	viscosity, 308.15 K
[1]	773.9 kg/m3 and 773.3 kg/m3	769.2	765.7	–	–	–	1262	1.239	1.123 mPa·s and 1.124 mPa·s	1.028 mPa·s and 1.02 mPa·s and 1.103 mPa·s
[2]	–	–	–	1.4276	1.4255 and 1.4254	1.4228	–	–	–	–

CCCCN(CCCC)CCCC [tributylamine] + ClC(Cl)=C(Cl)Cl
Details	mass density, [3] [kg/m3]	refractive index, [4]	speed of sound, [3] [m/s]	viscosity, [3] [mPa·s]
298.15 K, x1 = 0.104	1433.8	1.4872	1052	0.917
298.15 K, x1 = 0.2059	1295.5	1.4748	1073	0.958
298.15 K, x1 = 0.3068	1185.4	1.4659	1094	0.996
298.15 K, x1 = 0.4073	1095	1.4566	1116	1.033
298.15 K, x1 = 0.4967	1026.9	1.4506	1136	1.065
298.15 K, x1 = 0.6069	955.4	1.4437	1162	1.104
298.15 K, x1 = 0.699	904.2	1.4396	1184	1.136
298.15 K, x1 = 0.8018	854.3	1.435	1209	1.172
298.15 K, x1 = 0.9007	812	1.4316	1235	1.206
298.15 K, x1 = 1	773.9	1.4276	1262	1.239
303.15 K, x1 = 0.104	1425.9	1.4842	–	0.869
303.15 K, x1 = 0.2059	1288.1	1.4721	–	0.902
303.15 K, x1 = 0.3068	1181.4	–	–	0.93
303.15 K, x1 = 0.4073	1089.1	1.4539	–	0.96
303.15 K, x1 = 0.4967	1021.5	1.4479	–	0.99
303.15 K, x1 = 0.6069	949.9	1.4415	–	1.018
303.15 K, x1 = 0.699	899.4	1.4367	–	1.053
303.15 K, x1 = 0.8018	849.4	1.4325	–	1.081
303.15 K, x1 = 0.9007	808	1.4289	–	1.104
303.15 K, x1 = 1	769.2	1.4255	–	1.124
308.15 K, x1 = 0.104	1418.2	1.481	–	0.818
308.15 K, x1 = 0.2059	1281.3	1.4692	–	0.844
308.15 K, x1 = 0.3068	1172.5	1.4594	–	0.869
308.15 K, x1 = 0.4073	1083.2	1.451	–	0.893
308.15 K, x1 = 0.4967	1015.9	1.445	–	0.914
308.15 K, x1 = 0.6069	945.2	1.4392	–	0.94
308.15 K, x1 = 0.699	894.7	1.434	–	0.961
308.15 K, x1 = 0.8018	845.3	1.4298	–	0.984
308.15 K, x1 = 0.9007	803.4	1.4263	–	1.006
308.15 K, x1 = 1	765.7	1.4228	–	1.028

c1ccncc1 [pyridine]
Details	mass density, 298.15 K [kg/m3]	mass density, 303.15 K [kg/m3]	mass density, 308.15 K [kg/m3]	refractive index, 298.15 K	refractive index, 303.15 K	refractive index, 308.15 K	speed of sound, 298.15 K [m/s]	viscosity, 298.15 K [mPa·s]	viscosity, 303.15 K [mPa·s]	viscosity, 308.15 K [mPa·s]
[1]	979	973.7	968.6	–	–	–	1412	0.885	0.82	0.766
[2]	–	–	–	1.5062	1.5025	1.5016	–	–	–	–

c1ccncc1 [pyridine] + CCCCN(CCCC)CCCC
x2 = 0
Details	mass density, 298.15 K [kg/m3]	mass density, 303.15 K [kg/m3]	mass density, 308.15 K [kg/m3]	refractive index, 298.15 K	refractive index, 303.15 K	refractive index, 308.15 K	speed of sound, 298.15 K [m/s]	viscosity, 298.15 K [mPa·s]	viscosity, 303.15 K [mPa·s]	viscosity, 308.15 K [mPa·s]
[3]	979	973.7	968.6	–	–	–	1412	0.885	0.82	0.766
[4]	–	–	–	1.5062	1.5025	1.5016	–	–	–	–

CCCCCCCCCCCCCC [tetradecane]
Details	mass density, 298.15 K [kg/m3]	mass density, 303.15 K [kg/m3]	mass density, 308.15 K [kg/m3]	refractive index, 298.15 K	refractive index, 303.15 K	refractive index, 308.15 K	speed of sound, 298.15 K [m/s]	viscosity, 298.15 K [mPa·s]	viscosity, 303.15 K [mPa·s]	viscosity, 308.15 K [mPa·s]
[1]	760.7	757	753.3	–	–	–	1315	2.032	1.827	1.653
[2]	–	–	–	1.4282	1.426	1.4236	–	–	–	–

CCCCN(CCCC)CCCC [tributylamine] + CCCCCCCCCCCCCC
Details	mass density, 298.15 K [kg/m3]	mass density, 303.15 K [kg/m3]	mass density, 308.15 K [kg/m3]	refractive index, 298.15 K	refractive index, 303.15 K	refractive index, 308.15 K	speed of sound, 298.15 K [m/s]	viscosity, 298.15 K [mPa·s]	viscosity, 303.15 K [mPa·s]	viscosity, 308.15 K [mPa·s]
[3], x1 = 0.1081	761.9	758.1	754.4	–	–	–	1303	1.93	1.75	1.57
[3], x1 = 0.2058	762.9	759.2	755.5	–	–	–	1292	1.842	1.671	1.499
[3], x1 = 0.2802	763.8	760	756.3	–	–	–	1287	1.774	1.612	1.45
[3], x1 = 0.4095	765.3	761.5	757.8	–	–	–	1283	1.668	1.518	1.368
[3], x1 = 0.5112	766.6	762.9	759.1	–	–	–	1279	1.585	1.448	1.31
[3], x1 = 0.6101	767.9	764.2	760.5	–	–	–	1275	1.511	1.386	1.261
[3], x1 = 0.7051	769.3	765.5	761.9	–	–	–	1272	1.441	1.329	1.216
[3], x1 = 0.7999	770.9	767	763.1	–	–	–	1270	1.375	1.274	1.173
[3], x1 = 0.8953	772.4	768.4	764.4	–	–	–	1267	1.309	1.222	1.135
[3], x1 = 1	773.9	769.2	765.7	–	–	–	1262	1.239	1.124	1.103
[4], x1 = 0.1081	–	–	–	1.4283	1.4258	1.4234	–	–	–	–
[4], x1 = 0.2058	–	–	–	1.4282	1.4257	1.4234	–	–	–	–
[4], x1 = 0.2802	–	–	–	1.428	1.4256	1.4232	–	–	–	–
[4], x1 = 0.4095	–	–	–	1.4278	1.4254	1.4231	–	–	–	–
[4], x1 = 0.5112	–	–	–	1.4278	1.4254	1.423	–	–	–	–
[4], x1 = 0.6101	–	–	–	1.4278	1.4254	1.423	–	–	–	–
[4], x1 = 0.7051	–	–	–	1.4279	1.4255	1.4231	–	–	–	–
[4], x1 = 0.7999	–	–	–	1.4281	1.4256	1.4231	–	–	–	–
[4], x1 = 0.8953	–	–	–	1.428	1.4255	1.4231	–	–	–	–
[4], x1 = 1	–	–	–	1.4276	1.4255	1.4228	–	–	–	–

CCCCN(CCCC)CCCC [tributylamine] + ClC=C(Cl)Cl
x1 = 1
Details	mass density, 298.15 K [kg/m3]	mass density, 303.15 K [kg/m3]	mass density, 308.15 K [kg/m3]	refractive index, 298.15 K	refractive index, 303.15 K	refractive index, 308.15 K	speed of sound, 298.15 K [m/s]	viscosity, 298.15 K [mPa·s]	viscosity, 303.15 K [mPa·s]	viscosity, 308.15 K [mPa·s]
[3]	773.3	769.2	765.7	–	–	–	1262	1.239	1.124	1.028
[4]	–	–	–	1.4276	1.4255	1.4228	–	–	–	–
